The values that follow come from patent publication US20210147811A1, “METHODS FOR IN VITRO EXPANSION OF ADULT TISSUE STEM CELLS” (CEDARS-SINAI MEDICAL CENTER, priority 2018, published 2021).

Assay [1] concerns freshly isolated club cells. Description: Organoid culture of lineage labelled murine club cells. Format: cell-based. The note with it: GFP+ club cells, in presence of SB431542. The text has this: FIG. 17. Effect of ROCK and P53 inhibition on lineage labelled murine club cells. GFP^+ club cells were isolated from tamoxifen treated Scgb1a1-CreER/ROSARG mice. Addition of ROCKi (in presence of SB431542) increases the colony forming efficiency of freshly isolated club cells (regional stem cells which maintain certain cell types in the bronchiolar epithelium) whereas addition of Pifithrin alpha (in presence of SB431542) increases the size of Scgb1a1-derived organoids.
(§1) Distal progenitor cells were cultured as 3D organoids for 14 days in presence of Pifithrin-alpha, ROCKi and SB431542 followed by culture for 7 days in media without all three inhibitors. […] Addition of ROCKi (in presence of SB431542) increases the colony forming efficiency of freshly isolated club cells (regional stem cells which maintain certain cell types in the bronchiolar epithelium) whereas addition of Pifithrin alpha (in presence of SB431542) increases the size of Scgb1a1-derived organoids. Addition of both ROCKi (in presence of SB431542) increases the colony forming efficiency of freshly isolated murine proximal total epithelial cells (isolated from the murine trachea).

For assay [2], the system named is distal progenitor cells. Description: Differentiation potential of distal progenitors after 3D organoid culture with inhibitors. The note with it: 14 days with Pifithrin-alpha, ROCKi and SB431542, then 7 days without inhibitors, PDPN and SPC staining. In kind it is cell-based. As for the experimental part:
FIG. 16. […] Distal progenitor cells were cultured as 3D organoids for 14 days in presence of Pifithrin-alpha, ROCKi and SB431542 followed by culture for 7 days in media without all three inhibitors. […] DAPI (blue) is a nuclear stain.
as §1

The test system of assay [3] is freshly isolated alveolar type II cells. Description: Organoid culture of lineage labelled murine alveolar type II cells. Format: cell-based. The note with it: GFP+ alveolar type II cells, in presence of SB431542. An excerpt:
FIG. 15. Effect of ROCK and P53 inhibition on lineage labelled murine alveolar type II cells. GFP^+ alveolar type II cells were isolated from tamoxifen treated SPC-CreER/ROSARG mice. Addition of both ROCKi and Pifithrin alpha (in presence of SB431542) increases the colony forming efficiency of freshly isolated alveolar typeII cells (regional stem cells which maintain the epithelium of the air sacs in the lung). The effect is synergistic for their combined use, similar to that seen for total distal epithelial cells in the previous figures.
(§2) ROCKi increases the colony forming efficiency when murine distal total epithelial cells (isolated from the lung without trachea) are pre-cultured on collagen coated plates for 24 hrs prior after initial isolation. The effect on size is more pronounced when cells are precultured for 24 hrs on collagen coated plates after initial isolation. The drop in CFE in the Pifithrin alpha+ROCKi group is likely due space and nutrient availability constraints due to the large number of organoids per well. Addition of both ROCKi and Pifithrin alpha (in presence of SB431542) increases the colony forming efficiency of freshly isolated alveolar type II cells (regional stem cells which maintain the epithelium of the air sacs in the lung). The effect is synergistic for their combined use, similar to that seen for total distal epithelial cells in the previous figures.

Assay [4] has as its system lung stem cells. Description: In vitro organoid assays of clonal expansion of lung stem cells. As to conditions: combination of p53 inhibitor with ROCK inhibitor (and TGFb inhibitors). Format: cell-based. An excerpt: Methods have been developed for expansion of stem cells using a combination of irradiated NIH-3T3 fibroblasts and a ROCK inhibitor (Y27632). […] Preliminary studies by the Inventors have shown that pharmacologic inhibition of p53 results in greater clonal expansion of lung stem cells compared to use of ROCK inhibitor Y27632 alone. Effects of combined treatment with Pifithrin-α and Y27632 are additive. Future studies will determine reversibility of Pifirthrin-α effects on stem cell expansion and differentiation. This includes: 1) validating that the observed increase in clonogenic potential of lung stem cells is the result of stem cell expansion, 2) application of the aforementioned pharmacologic intervention during in vitro stem cell expansion enhances their viability following cryopreservation, 3) that application of the aforementioned pharmacologic intervention during in vitro stem cell expansion enhances to functionally engraft into lung tissue following orthotopic lung transplantation, 4) that stem cells expanded under these conditions retain full capacity for differentiation into specialized lung epithelial cell types and 5) that established culture conditions can be used to expand human lung stem cells. […]

Assay [5] deals with murine pre-cultured distal total epithelial cells. Description: 3D organoid culture of murine distal total epithelial cells pre-cultured 24 hrs on collagen coated plates. Format: cell-based. The note with it: pre-cultured on collagen coated plates for 24 hrs after isolation, +SB431542.
Excerpt: FIG. 4. Effect of pre-culturing—Day 3. Pre-culturing cells on collagen coated plates for 24 hrs after initial isolation increases the rate of organoid formation, with organoids being visible as early as day 3 in culture.
FIG. 5. Effect of pre-culturing—Day 8. Addition of Pifithrin α causes an increase in organoids size, while addition of ROCKi causes an increase in the colony forming efficiency. This effect is more pronounced when cells are pre-cultured for 24 hrs on collagen coated plates after initial isolation.
FIG. 14. Effect of inhibitors on murine pre-cultured distal total epithelial cells in (+SB431542). Addition Pifithrin alpha increases organoid size while addition of ROCKi increases the colony forming efficiency when murine distal total epithelial cells (isolated from the lung without trachea) are pre-cultured on collagen coated plates for 24 hrs prior after initial isolation. The effect on size is more pronounced when cells are precultured for 24 hrs on collagen coated plates after initial isolation. The drop in CFE in the Pifithrin alpha+ROCKi group is likely due space and nutrient availability constraints due to the large number of organoids per well.
as §2

Assay [6] deals with T1, p53 (Homo sapiens, UniProt P04637).
T1 construct: host or cells: neuronal cells (not further described)
As to conditions: cited from earlier work.

Assay [7] concerns freshly isolated murine proximal total epithelial cells. The assay can be described thus: Organoid culture of murine tracheal progenitor (basal) cells. Format: cell-based. As to the method:
FIG. 18. Effect of ROCK and P53 inhibition on murine tracheal progenitor (basal) cells. Addition of both ROCKi (in presence of SB431542) increases the colony forming efficiency of freshly isolated murine proximal total epithelial cells (isolated from the murine trachea).
as §1

T1 sequence (P04637 whole entry, species assumed): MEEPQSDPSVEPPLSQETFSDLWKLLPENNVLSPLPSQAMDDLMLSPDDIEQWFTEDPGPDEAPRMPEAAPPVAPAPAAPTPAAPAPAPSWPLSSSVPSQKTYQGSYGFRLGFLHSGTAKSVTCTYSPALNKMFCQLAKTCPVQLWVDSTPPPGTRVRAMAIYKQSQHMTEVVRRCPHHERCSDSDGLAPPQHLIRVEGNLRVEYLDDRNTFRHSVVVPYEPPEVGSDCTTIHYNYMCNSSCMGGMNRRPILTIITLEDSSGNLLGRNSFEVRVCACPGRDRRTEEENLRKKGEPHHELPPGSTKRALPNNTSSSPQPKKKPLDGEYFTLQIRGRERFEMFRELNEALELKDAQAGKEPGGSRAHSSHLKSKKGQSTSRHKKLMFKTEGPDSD

`Cc1ccc(C(=O)Cn2c3c(sc2=N)CCCC3)cc1` [Pifithrin α]: the “size of Scgb1a1-derived organoids” value in assay [1] is “increases”. The differentiation potential result in assay [2] (listed as Pifithrin alpha) is listed as “do not alter”; in assay [2] (listed as Pifithrin-alpha), “did not alter”. Besides, the colony forming efficiency entry is listed as “increases” in assay [3] and “does not show a significant effect” in assay [7] (cells isolated from the murine trachea, in presence of SB431542). The “size of the alveolar organoids” value in assay [3] is “does not increase”. Moreover, the “effect of combined use on clonal expansion / clonogenic potential of lung stem cells” value in assay [4] is “additive”. In addition, the organoid size result in assay [5] was “increase”; in assay [5] (listed as Pifithrin alpha), “increases”. For the same compound, the “protection against p53-induced neuronal cell death” value in assay [6] was “protection”. Moreover, the “survival of proximal and distal progenitors (inferred from colony forming ability)” value in assay [7] (comparison of proximal and distal progenitor cell types) is given as “specific to distal stem cells”.
